From ChEMBL document CHEMBL1201862, “PubChem BioAssay data set” (2004)
Active and inactive are the calls of the source.

What was measured:
[1] = target: T1, Methionyl-tRNA synthetase, putative (Trypanosoma brucei brucei, UniProt Q38C91); assay type: functional, Trypanosoma brucei brucei strain 927/4 GUTat10.1
T1 sequence (Q38C91 whole entry): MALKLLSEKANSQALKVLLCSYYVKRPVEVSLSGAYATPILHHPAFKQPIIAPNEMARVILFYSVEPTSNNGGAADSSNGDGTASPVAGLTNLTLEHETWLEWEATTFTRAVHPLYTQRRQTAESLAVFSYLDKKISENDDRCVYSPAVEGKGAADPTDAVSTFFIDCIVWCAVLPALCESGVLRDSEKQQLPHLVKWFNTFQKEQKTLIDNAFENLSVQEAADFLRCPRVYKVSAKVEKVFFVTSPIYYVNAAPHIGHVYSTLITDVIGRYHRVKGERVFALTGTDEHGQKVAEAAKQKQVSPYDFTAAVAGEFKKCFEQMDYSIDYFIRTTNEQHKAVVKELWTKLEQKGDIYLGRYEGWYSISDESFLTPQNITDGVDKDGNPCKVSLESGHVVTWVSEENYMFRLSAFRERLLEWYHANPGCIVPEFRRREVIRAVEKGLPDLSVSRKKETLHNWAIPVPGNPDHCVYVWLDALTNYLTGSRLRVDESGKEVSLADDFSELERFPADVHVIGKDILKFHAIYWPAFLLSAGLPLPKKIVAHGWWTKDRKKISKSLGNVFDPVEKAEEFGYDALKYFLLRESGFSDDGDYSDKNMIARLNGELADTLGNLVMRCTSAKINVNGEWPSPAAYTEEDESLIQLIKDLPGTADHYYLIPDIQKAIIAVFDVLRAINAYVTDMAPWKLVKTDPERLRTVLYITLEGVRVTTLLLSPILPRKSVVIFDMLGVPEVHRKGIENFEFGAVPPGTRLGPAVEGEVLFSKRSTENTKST

[2] = Counterscreen for inhibitors of Trypanosoma brucei methionyl tRNA synthetase (MetRS): Luminescence-based cell-based high throughput dose response assay to identify compounds that are cytotoxic to Jurkat human T lymphocyte cells.; assay type: functional
[3] = target: T1, Methionyl-tRNA synthetase, putative; assay type: functional, Trypanosoma brucei brucei strain 927/4 GUTat10.1; remark: listed apart in the source
[4] = target: T2, Corticotropin-releasing factor receptor 2/Corticotropin-releasing factor-binding protein (Homo sapiens, UniProt P24387+Q13324); assay: activators of CRF receptor 2 with binding protein – uHTS hits, confirmation (AID 602473); assay type: functional; conditions: read-out: EC50_Mean
T2 sequence (Q13324 whole entry): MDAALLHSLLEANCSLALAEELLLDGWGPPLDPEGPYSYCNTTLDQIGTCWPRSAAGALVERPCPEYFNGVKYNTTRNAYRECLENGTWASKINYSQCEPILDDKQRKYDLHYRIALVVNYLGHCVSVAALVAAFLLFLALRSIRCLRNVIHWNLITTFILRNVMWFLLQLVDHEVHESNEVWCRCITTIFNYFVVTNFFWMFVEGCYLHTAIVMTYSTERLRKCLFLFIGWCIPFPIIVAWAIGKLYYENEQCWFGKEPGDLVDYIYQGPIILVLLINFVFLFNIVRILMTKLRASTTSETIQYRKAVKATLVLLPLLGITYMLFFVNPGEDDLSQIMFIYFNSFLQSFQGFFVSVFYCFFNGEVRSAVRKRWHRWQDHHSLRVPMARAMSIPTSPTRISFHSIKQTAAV
T2 sequence (P24387 whole entry): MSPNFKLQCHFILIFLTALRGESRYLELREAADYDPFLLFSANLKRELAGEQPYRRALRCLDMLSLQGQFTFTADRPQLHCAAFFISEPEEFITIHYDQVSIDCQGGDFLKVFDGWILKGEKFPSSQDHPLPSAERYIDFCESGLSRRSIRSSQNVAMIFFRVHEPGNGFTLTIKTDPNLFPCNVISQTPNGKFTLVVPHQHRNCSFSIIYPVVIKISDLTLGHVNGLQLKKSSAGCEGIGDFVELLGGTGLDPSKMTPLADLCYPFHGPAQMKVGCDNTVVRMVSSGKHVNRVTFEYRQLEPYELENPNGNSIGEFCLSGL

[5] = target: Long-chain-fatty-acid--AMP ligase FadD28 (Mycobacterium tuberculosis, UniProt P9WQ59); assay: Fluorescence polarization aasay to screen for inhibitors that compete for the binding of FadD28 to a bisubstrate Measured in Biochemical System Using Plate Reader - 2147-01_Inhibitor_Dose_CherryPick_Activity.; assay type: functional, Mycobacterium tuberculosis H37Rv
[6] = target: Potassium voltage-gated channel subfamily KQT member 2 (Rattus norvegicus, UniProt O88943); assay: KCNQ2 potassium channel inhibitors, dose response, cell-based, automated electrophysiology, set II, rat KCNQ2 (AID 588637); assay type: functional
[7] = test system: CHO-K1; assay: (§1) Counterscreen for antagonists of the orexin 1 receptor (OX1R; HCRTR1): Homogeneous time resolved fluorescence (HTRF)-based cell-based dose response assay to identify antagonists of the parental CHO-K1 cell line. [Related pubchem assays (depositor defined):AID434989, AID435008, AID463079, AID485270, AID492963, AID492964, AID492965, AID493232, AID504699, AID504701]; assay type: functional; conditions: Cricetulus griseus
[8] = as §1, with “Fluorescence-based” for “Homogeneous time resolved fluorescence (HTRF)-based”, “cell-based high throughput” for “cell-based”, “CHO” for “CHO-K1”; assay type: functional
[9] = target: T3, Orexin/Hypocretin receptor type 1 (Homo sapiens, UniProt O43613); assay: Homogeneous Time Resolved Fluorescence (HTRF)-based cell-based high throughput dose response assay for antagonists of the orexin 1 receptor (OX1R; HCRTR1). [Related pubchem assays (depositor defined):AID434989, AID435008, AID463079, AID485270, AID492963, AID492964, AID492965, AID493232, AID504717, AID504718]; assay type: functional
T3 sequence (O43613 whole entry): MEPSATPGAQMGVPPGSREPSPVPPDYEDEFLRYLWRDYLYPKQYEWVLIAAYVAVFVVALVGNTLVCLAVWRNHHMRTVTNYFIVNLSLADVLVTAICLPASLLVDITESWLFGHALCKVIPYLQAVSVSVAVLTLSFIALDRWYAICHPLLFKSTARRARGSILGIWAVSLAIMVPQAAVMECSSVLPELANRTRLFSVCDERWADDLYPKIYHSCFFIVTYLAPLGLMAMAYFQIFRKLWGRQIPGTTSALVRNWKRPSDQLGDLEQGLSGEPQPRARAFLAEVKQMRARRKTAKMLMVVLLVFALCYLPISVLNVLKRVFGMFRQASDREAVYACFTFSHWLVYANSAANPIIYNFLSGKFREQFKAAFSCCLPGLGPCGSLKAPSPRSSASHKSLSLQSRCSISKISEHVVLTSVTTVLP

[10] = target: T3, Orexin/Hypocretin receptor type 1; assay: Fluorescence-based cell-based high throughput dose response assay for antagonists of the orexin 1 receptor (OX1R; HCRTR1). [Related pubchem assays (depositor defined):AID434989, AID435008, AID463079, AID485270, AID492963, AID492964, AID492965, AID493232, AID504717, AID504718]; assay type: functional
[11] = target: T4, Orexin receptor type 2 (Homo sapiens, UniProt O43614); assay: Counterscreen assay for antagonists of the orexin 1 receptor (OX1R; HCRTR1): Fluorescence-based cell-based dose response assay for antagonists of the orexin 2 receptor (OX2R; HCRTR2), run by assay provider.; assay type: functional
T4 sequence (O43614 whole entry): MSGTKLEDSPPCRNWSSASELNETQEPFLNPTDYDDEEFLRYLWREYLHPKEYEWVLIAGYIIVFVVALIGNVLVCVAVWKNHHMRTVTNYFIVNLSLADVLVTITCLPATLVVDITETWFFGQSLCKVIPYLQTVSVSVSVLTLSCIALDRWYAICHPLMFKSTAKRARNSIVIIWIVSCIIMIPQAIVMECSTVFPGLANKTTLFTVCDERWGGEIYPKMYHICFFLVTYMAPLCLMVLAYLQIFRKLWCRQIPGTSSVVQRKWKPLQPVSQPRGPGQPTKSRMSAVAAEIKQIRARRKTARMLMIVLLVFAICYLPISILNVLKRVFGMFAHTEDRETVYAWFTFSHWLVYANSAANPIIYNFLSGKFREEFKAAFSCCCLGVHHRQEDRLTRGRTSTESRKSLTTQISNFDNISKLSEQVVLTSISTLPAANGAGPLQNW

[12] = target: T4, Orexin receptor type 2; assay: Counterscreen assay for antagonists of the orexin 1 receptor (OX1R; HCRTR1): Homogeneous Time Resolved Fluorescence (HTRF)-based cell-based dose response assay for antagonists of the orexin 2 receptor (OX2R; HCRTR2), run by assay provider.; assay type: functional
[13] = target: Protein Wnt-3a (Mus musculus, UniProt P27467); assay: Wnt3a-driven reporter signaling inhibition, dose response, selectivity assay for Gli-SUFU antagonist project, Wnt-LIGHT cells, luminescence (AID 651570); assay type: functional; conditions: read-out: IC50_Mean;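 note: Wnt-LIGHT reporter cells stimulated with conditioned medium from Wnt3a-producing cells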
Protein Wnt-3a, sequence (P27467 whole entry): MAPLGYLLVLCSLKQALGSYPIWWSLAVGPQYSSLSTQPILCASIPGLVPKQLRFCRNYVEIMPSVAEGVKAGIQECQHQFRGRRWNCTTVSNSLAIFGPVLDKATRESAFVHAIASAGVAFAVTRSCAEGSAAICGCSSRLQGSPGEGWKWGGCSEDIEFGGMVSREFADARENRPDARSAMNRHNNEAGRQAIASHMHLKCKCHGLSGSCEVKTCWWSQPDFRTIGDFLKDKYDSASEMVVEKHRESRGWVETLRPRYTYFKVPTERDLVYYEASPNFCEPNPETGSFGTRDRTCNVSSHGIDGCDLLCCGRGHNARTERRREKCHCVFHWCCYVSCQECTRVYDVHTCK

Potassium voltage-gated channel subfamily KQT member 2, sequence (O88943 whole entry): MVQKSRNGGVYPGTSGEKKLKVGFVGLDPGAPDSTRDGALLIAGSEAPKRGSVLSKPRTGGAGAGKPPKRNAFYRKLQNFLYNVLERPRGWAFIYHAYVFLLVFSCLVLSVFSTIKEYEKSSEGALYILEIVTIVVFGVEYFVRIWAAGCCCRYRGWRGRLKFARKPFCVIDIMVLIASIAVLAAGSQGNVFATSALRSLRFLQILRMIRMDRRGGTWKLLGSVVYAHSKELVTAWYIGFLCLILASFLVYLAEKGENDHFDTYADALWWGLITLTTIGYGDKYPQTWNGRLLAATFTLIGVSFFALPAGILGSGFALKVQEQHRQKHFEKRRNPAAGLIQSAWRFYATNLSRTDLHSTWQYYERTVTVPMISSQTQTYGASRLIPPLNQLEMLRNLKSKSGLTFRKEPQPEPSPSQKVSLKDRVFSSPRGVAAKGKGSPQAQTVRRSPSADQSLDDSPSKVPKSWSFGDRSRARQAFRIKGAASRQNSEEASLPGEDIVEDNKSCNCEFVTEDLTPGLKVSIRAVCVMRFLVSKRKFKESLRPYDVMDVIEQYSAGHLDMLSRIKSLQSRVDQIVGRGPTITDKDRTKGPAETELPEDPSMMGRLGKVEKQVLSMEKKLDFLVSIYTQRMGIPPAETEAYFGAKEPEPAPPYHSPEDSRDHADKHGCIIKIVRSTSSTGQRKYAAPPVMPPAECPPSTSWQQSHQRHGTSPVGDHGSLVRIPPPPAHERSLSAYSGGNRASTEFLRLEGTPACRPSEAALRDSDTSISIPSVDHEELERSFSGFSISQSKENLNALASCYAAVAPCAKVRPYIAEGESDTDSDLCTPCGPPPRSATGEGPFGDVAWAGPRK
Long-chain-fatty-acid--AMP ligase FadD28, sequence (P9WQ59 whole entry): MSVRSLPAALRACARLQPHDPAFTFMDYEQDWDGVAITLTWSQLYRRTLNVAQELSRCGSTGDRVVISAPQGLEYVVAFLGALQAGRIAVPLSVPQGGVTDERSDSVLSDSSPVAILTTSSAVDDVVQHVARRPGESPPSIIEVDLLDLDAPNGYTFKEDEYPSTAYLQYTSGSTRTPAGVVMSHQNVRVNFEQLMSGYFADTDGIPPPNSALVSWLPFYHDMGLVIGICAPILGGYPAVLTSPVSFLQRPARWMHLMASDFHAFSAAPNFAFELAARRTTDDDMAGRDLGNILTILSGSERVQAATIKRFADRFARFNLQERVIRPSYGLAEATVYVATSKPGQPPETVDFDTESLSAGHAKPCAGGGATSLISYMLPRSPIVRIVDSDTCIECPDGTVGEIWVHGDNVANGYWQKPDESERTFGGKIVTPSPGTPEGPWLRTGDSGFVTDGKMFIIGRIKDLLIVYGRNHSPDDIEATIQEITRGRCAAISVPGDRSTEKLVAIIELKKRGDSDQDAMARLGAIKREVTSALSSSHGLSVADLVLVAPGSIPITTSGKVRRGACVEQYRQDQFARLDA

**Q.** Which IC50 [1] does the source give for `O=C(Cc1ccc(Nc2nc3cc(Br)ccc3[nH]2)cc1)NCCc1cccs1` here?
**A.** The IC50 was 0.163 µM (active).

**Q.** And the IC50 [2]?
**A.** Its IC50 is 27.8 µM (inactive).

**Q.** And the IC50 [3]?
**A.** The IC50 was 0.286 µM (active).

**Q.** Which EC50 [4] does the source give for `O=C1N=C(S)SC1=Cc1ccc(N(CCCl)CCCl)cc1` here?
**A.** Its EC50 is 5.45 µM (active).

**Q.** What about the AC50 [5] of the same compound?
**A.** Its AC50 is 66.7 µM (active).

**Q.** Which results are given for `COc1cccc(C2c3[nH]c4ccccc4c3C[C@H]3C(=O)N(C4CC4)CC(=O)N23)c1` (some centres not stated)?
**A.** IC50 [1]: 118 µM (inactive); IC50 [2]: 83.2 µM (inactive); IC50 [3]: 36.8 µM (inactive)

**Q.** With `CCc1sc(C(=O)Nc2ccccc2N2CCOCC2)cc1C` as the compound, how does the IC50 [6] read?
**A.** Its IC50 is 5.75 µM (active).

**Q.** For `CCC(C(=O)Nc1ccccc1N1CCCC1)c1ccccc1` (configuration not stated), which IC50 [6] is on record?
**A.** The IC50 was 0.161 µM (active).

**Q.** With `COC(=O)[C@H](Cc1c[nH]c2ccccc12)NC(=O)CCCc1c[nH]c2ccccc12` as the compound, how does the IC50 [7] read?
**A.** The IC50 was > 66.2 µM (inactive).

**Q.** And the IC50 [8]?
**A.** The IC50 was 17.4 µM (inactive).

**Q.** And the IC50 [9]?
**A.** Its IC50 is 15.3 µM (inactive).

**Q.** What about the IC50 [10] of the same compound?
**A.** Its IC50 is 9.04 µM (active).

**Q.** What about the IC50 [11] of the same compound?
**A.** Its IC50 is 17.2 µM (inactive).

**Q.** And the IC50 [12]?
**A.** Its IC50 is 6.41 µM (active).

**Q.** Which IC50 [13] does the source give for `NC(=O)c1ccccc1OCC(=O)N1CCC(Cc2ccccc2)CC1` here?
**A.** Its IC50 is 3.28 µM (active).
